30 compounds from US11547697B2, “Heterocyclic compounds and uses thereof” (MILLENNIUM PHARMACEUTICALS, INC., priority 2009, dated 2023) can be followed below.

Each structure is given as a SMILES string. Where two headings read alike, the source gives them in different places.

Common to all, as to format: biochemical
In one test the target is p110β/p85α (Homo sapiens (Human), UniProt P42338). As to the kind of experiment: PI 3-Kinase (human) HTRF assay, p110β/p85α. (Time-resolved FRET reads energy transfer from a long-lived donor to a nearby acceptor.)
A further test concerns the target p110γ (Homo sapiens (Human), UniProt P48736). Briefly: PI 3-Kinase (human) HTRF assay, p110γ.
In another test the target is p110α/p85α (Homo sapiens (Human), UniProt P42336). As to the kind of experiment: PI 3-Kinase (human) HTRF assay, p110α/p85α.
The next test concerns the target p110δ/p85α (Homo sapiens (Human), UniProt O00329). Briefly: PI 3-Kinase (human) HTRF assay, p110δ/p85α.
The mark [1] stands for this setting: in vitro, read-out: PI3K β IC50.
[2] abbreviates: in vitro, read-out: PI3K γ IC50.
The mark [3] stands for this setting: in vitro, read-out: PI3K α IC50.
Setting [4] is: in vitro, read-out: PI3K δ IC50.

Sequence of p110γ (P48736 whole entry): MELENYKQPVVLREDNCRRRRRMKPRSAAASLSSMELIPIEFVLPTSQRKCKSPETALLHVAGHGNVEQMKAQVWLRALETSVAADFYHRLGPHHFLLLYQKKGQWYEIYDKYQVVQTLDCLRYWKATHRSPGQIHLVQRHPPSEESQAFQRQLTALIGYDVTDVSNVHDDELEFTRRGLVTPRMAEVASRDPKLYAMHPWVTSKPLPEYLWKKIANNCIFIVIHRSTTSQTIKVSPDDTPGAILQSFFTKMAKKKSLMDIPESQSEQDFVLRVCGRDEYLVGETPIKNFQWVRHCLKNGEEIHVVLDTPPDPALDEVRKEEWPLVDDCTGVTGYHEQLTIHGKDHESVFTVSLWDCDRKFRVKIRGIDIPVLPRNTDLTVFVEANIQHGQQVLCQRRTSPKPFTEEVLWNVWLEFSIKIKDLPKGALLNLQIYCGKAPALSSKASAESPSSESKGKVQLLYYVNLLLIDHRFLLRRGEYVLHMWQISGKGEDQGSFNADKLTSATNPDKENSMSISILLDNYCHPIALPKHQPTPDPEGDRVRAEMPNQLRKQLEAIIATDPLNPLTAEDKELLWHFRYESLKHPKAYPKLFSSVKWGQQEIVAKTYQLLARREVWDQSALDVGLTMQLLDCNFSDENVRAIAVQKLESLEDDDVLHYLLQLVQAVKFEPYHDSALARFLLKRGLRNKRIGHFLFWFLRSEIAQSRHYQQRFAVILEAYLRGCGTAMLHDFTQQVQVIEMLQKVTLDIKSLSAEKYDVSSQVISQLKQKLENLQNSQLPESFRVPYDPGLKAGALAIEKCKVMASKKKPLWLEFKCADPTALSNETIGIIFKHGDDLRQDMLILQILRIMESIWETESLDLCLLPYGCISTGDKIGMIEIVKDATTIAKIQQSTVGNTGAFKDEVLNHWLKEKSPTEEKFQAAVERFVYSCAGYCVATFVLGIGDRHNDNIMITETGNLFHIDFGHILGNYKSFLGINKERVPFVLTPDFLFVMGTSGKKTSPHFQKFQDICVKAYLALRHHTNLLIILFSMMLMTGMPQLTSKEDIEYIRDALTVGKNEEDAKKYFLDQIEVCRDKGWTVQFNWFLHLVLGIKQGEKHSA
Sequence of p110α/p85α (P42336 whole entry): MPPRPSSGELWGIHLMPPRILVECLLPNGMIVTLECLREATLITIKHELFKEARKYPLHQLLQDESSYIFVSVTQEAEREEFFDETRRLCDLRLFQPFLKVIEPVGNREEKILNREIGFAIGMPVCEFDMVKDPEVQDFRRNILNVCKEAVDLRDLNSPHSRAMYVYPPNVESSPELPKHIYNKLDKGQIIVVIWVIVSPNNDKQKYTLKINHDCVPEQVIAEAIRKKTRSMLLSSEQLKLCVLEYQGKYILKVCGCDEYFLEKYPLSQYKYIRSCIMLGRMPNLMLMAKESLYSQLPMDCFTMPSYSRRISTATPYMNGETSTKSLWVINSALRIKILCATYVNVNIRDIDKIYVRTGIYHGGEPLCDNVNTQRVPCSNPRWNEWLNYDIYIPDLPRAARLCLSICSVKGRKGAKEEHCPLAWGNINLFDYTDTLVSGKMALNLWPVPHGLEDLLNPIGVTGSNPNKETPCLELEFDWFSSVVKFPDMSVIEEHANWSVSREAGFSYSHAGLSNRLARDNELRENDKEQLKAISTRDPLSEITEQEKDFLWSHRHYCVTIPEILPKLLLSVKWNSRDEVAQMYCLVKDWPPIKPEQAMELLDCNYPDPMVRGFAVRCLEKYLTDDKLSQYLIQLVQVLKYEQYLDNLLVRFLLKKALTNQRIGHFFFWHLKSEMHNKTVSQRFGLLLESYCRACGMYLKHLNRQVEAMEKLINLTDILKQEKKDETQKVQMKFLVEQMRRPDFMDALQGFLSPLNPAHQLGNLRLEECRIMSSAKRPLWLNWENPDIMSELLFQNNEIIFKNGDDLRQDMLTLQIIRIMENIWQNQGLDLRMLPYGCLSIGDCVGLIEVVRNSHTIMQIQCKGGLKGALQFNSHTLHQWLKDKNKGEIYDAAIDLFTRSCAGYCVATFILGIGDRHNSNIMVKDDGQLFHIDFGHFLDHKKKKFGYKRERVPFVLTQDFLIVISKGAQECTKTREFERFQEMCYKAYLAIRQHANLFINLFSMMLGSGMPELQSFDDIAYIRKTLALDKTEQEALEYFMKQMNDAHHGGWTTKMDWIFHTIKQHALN
Sequence of p110α/p85α (P27986 whole entry partner): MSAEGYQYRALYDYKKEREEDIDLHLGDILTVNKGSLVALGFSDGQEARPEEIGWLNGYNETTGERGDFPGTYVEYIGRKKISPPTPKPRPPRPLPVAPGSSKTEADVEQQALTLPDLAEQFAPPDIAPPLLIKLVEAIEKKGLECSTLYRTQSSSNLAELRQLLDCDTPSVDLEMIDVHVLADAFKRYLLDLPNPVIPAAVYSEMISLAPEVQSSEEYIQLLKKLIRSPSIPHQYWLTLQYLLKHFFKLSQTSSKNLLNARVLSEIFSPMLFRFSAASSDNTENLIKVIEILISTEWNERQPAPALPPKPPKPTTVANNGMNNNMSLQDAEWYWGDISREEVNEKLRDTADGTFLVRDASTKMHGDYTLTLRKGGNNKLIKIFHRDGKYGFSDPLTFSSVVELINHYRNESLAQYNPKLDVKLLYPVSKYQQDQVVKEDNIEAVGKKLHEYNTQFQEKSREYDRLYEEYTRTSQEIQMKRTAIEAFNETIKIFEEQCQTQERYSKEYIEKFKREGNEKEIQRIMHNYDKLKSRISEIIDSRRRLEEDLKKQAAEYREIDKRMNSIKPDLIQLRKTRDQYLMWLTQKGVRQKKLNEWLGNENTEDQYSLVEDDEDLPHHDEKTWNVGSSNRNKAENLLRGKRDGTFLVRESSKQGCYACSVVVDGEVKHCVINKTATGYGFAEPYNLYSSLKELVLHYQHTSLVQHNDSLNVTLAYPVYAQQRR
Sequence of p110δ/p85α (O00329 whole entry): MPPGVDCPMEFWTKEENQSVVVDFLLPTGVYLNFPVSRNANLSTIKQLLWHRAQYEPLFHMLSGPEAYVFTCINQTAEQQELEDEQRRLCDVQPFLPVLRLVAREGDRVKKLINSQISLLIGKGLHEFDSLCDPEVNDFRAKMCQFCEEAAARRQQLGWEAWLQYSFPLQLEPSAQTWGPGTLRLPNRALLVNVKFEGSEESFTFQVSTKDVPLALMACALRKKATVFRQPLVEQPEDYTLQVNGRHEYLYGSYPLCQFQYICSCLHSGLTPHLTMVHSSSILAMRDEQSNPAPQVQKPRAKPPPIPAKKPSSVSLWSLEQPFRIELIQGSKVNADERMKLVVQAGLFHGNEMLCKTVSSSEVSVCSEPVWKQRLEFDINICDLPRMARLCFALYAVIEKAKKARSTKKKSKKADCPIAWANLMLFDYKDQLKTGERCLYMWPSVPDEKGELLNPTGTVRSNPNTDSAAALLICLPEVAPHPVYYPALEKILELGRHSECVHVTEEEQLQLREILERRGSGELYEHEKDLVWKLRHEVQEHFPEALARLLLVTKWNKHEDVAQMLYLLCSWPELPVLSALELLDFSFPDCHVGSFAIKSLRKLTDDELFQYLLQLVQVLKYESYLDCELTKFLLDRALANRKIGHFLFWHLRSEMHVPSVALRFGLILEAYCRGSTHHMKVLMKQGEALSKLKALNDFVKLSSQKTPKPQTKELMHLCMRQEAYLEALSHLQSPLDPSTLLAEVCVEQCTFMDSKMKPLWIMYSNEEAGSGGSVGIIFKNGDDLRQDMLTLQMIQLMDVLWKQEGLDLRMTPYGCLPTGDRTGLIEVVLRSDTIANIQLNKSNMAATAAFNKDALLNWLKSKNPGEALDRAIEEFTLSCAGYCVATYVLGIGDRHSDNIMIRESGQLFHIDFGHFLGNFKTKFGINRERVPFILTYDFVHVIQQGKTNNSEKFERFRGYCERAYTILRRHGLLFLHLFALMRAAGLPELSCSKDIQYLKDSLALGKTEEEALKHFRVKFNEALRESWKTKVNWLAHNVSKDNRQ
Sequence of p110δ/p85α (P27986 whole entry partner): as the sequence (P27986 whole entry partner) above
Sequence of p110β/p85α (P42338 whole entry): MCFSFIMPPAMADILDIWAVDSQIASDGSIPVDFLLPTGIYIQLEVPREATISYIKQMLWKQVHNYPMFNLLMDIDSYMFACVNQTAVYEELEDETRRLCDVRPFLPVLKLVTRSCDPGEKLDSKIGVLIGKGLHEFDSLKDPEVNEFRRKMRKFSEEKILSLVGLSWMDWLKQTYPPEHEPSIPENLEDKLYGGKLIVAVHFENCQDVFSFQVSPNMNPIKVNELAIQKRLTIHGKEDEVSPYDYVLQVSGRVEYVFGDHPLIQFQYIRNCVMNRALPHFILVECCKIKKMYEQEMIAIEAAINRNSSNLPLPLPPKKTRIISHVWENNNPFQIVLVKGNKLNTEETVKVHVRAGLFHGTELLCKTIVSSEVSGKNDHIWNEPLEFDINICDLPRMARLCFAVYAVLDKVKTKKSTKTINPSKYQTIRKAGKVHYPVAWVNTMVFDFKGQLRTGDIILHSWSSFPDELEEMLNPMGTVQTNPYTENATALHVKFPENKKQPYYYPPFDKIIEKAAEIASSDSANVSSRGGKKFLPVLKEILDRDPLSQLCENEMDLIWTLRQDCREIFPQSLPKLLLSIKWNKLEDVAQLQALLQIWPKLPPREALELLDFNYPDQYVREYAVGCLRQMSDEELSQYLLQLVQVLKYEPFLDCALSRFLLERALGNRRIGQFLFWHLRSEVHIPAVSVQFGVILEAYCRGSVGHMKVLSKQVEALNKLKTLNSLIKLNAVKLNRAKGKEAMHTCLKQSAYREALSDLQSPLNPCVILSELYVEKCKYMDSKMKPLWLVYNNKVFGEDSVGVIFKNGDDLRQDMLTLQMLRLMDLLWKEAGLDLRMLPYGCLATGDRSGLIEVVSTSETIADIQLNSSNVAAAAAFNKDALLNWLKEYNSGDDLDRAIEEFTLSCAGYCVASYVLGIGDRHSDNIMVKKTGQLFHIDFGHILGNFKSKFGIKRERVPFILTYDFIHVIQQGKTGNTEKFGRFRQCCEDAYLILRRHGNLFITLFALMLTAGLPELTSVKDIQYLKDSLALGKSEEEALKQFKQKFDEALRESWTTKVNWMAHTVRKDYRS
Sequence of p110β/p85α (P27986 whole entry partner): as the sequence (P27986 whole entry partner) above

Take `Nc1nc2cc(-c3ccc4ncc(N5CC(O)C5)nc4c3)ccc2o1` [compound 216]: the IC50 – broadly, the concentration that inhibits the measured activity by half – was less than 1000 nM at p110β/p85α (setting [1]), less than 100 nM on p110γ (setting [2]), less than 100 nM on p110α/p85α (setting [3]) and less than 10000 nM at p110δ/p85α (setting [4]).
On to `CS(=O)(=O)CCN1CCC(NC(=O)c2cnc3ccc(-c4ccc5oc(N)nc5c4)cn23)CC1` [compound 199], for which the IC50 at p110β/p85α (setting [1]) was less than 10000 nM; at p110γ (setting [2]), less than 100 nM; on p110α/p85α (setting [3]), less than 100 nM; at p110δ/p85α (setting [4]), less than 100 nM.
`CC(Oc1nc(-c2ccc3oc(N)nc3c2)cnc1N)C(F)(F)F` (stereo not drawn) [compound 239]: the IC50 on p110β/p85α (setting [1]) was less than 1000 nM; at p110γ (setting [2]), less than 10000 nM; on p110α/p85α (setting [3]), less than 10000 nM; at p110δ/p85α (setting [4]), less than 10000 nM.
`Nc1nc2cc(-c3ccc4nc(N)sc4c3)cc(F)c2o1` [compound 436]: the IC50 was less than 100 nM on p110β/p85α (read-out: PI3K β In Vitro IC50), less than 100 nM at p110γ (read-out: PI3K γ In Vitro IC50), less than 100 nM at p110α/p85α (read-out: PI3K α In Vitro IC50) and less than 1000 nM at p110δ/p85α (read-out: PI3K δ In Vitro IC50).
As for `CC(=O)N1CCC(Nc2cnc3ccc(-c4ccc5oc(N)nc5c4)cc3n2)CC1` [compound 82], the IC50 is less than 10000 nM at p110β/p85α (read-out: PI3K β IC50), less than 100 nM on p110γ (read-out: PI3K γ IC50), less than 100 nM at p110α/p85α (read-out: PI3K α IC50) and less than 100 nM at p110δ/p85α (read-out: PI3K δ IC50).
As to `CCN(CC)CCCNC(=O)c1cnc2ccc(-c3ccc4oc(N)nc4c3)cn12` [compound 302], the IC50 is less than 10000 nM at p110β/p85α (setting [1]), less than 10000 nM on p110γ (setting [2]), less than 1000 nM on p110α/p85α (setting [3]) and less than 100 nM at p110δ/p85α (setting [4]).
Consider `CC(C)(C#N)c1ccc(Nc2ncnc3ccc(-c4ccc5oc(N)nc5c4)cc23)cc1` [compound 102], for which the IC50 on p110β/p85α (read-out: PI3K β IC50) was less than 1000 nM; on p110γ (read-out: PI3K γ IC50), less than 100 nM; at p110α/p85α (read-out: PI3K α IC50), less than 100 nM; on p110δ/p85α (read-out: PI3K δ IC50) it was less than 1000 nM.
For the compound `Cc1cc(-c2ccc3oc(N)nc3c2)cc2c(C(=O)N3CCCC3)cnn12` [compound 368], the IC50 at p110β/p85α (setting [1]) is less than 10000 nM; at p110γ (setting [2]), less than 1000 nM; on p110α/p85α (setting [3]) it was less than 100 nM; on p110δ/p85α (setting [4]), less than 1000 nM.
As to `Nc1nc2ccc(-c3ccc4nnc(-c5ccncc5)n4c3)cc2o1` [compound 230], the IC50 on p110β/p85α (setting [1]) is less than 1000 nM; on p110γ (setting [2]), less than 1000 nM; on p110α/p85α (setting [3]), less than 10000 nM; on p110δ/p85α (setting [4]) it was less than 10000 nM.
With `CC(C)N1CCC(n2cnc3ccc(-c4cnc(Cl)c(NS(=O)(=O)c5ccccc5)c4)cc3c2=O)CC1` [compound 521], the IC50 is less than 100 nM on p110β/p85α (read-out: PI3K β In Vitro IC50), less than 1000 nM on p110γ (read-out: PI3K γ In Vitro IC50), less than 100 nM on p110α/p85α (read-out: PI3K α In Vitro IC50) and less than 100 nM on p110δ/p85α (read-out: PI3K δ In Vitro IC50).
As for `CN(C)[C@H]1CCN(c2cnc3ccc(-c4ccc5oc(N)nc5c4)cc3n2)C1` [compound 382], the 50% inhibitory concentration (IC50) was less than 1000 nM on p110β/p85α (setting [1]), less than 1000 nM on p110γ (setting [2]), less than 100 nM on p110α/p85α (setting [3]) and less than 10000 nM on p110δ/p85α (setting [4]).
As to `COc1ncc(-c2ccc3ncn(C4CCN(C)CC4)c(=O)c3c2)cc1NS(C)(=O)=O` [compound 525], the IC50 on p110β/p85α (read-out: PI3K β In Vitro IC50) is less than 1000 nM; at p110γ (read-out: PI3K γ In Vitro IC50), less than 10000 nM; on p110α/p85α (read-out: PI3K α In Vitro IC50) it was less than 100 nM; on p110δ/p85α (read-out: PI3K δ In Vitro IC50) it was less than 100 nM.
As to `CCN1CCN(C2CN(c3cnc4ccc(-c5ccc6oc(N)nc6c5)cc4n3)C2)CC1` [compound 329], the 50% inhibitory concentration (IC50) on p110β/p85α (setting [1]) is less than 1000 nM; on p110γ (setting [2]) it was less than 10000 nM; at p110α/p85α (setting [3]), less than 100 nM; on p110δ/p85α (setting [4]), less than 1000 nM.
As for `CC(C)N1CCN(C2CN(c3cnc4ccc(-c5ccc6oc(N)nc6c5)cc4n3)C2)CC1` [compound 331], the IC50 at p110β/p85α (setting [1]) is less than 10000 nM; at p110γ (setting [2]), less than 10000 nM; at p110α/p85α (setting [3]), less than 100 nM; on p110δ/p85α (setting [4]), less than 10000 nM.
As for `Nc1nc2cc(-c3ccc4ncc(NCCN5CCCC5)nc4c3)ccc2o1` [compound 219], the IC50 at p110β/p85α (setting [1]), at p110γ (setting [2]), at p110α/p85α (setting [3]) and at p110δ/p85α (setting [4]) was less than 1000 nM in each case.
As to `CCN(CC)CCNC(=O)c1cnc2ccc(-c3ccc4oc(N)nc4c3)cn12` [compound 295], the IC50 on p110β/p85α (setting [1]), at p110γ (setting [2]), on p110α/p85α (setting [3]) and on p110δ/p85α (setting [4]) was less than 1000 nM throughout.
Regarding `Nc1nc2cc(-c3ccc4ncc(C(=O)N5CC[C@@H](N6CCOCC6)C5)n4c3)ccc2o1` [compound 466], the IC50 on p110β/p85α (read-out: PI3K β In Vitro IC50) was less than 10000 nM; on p110γ (read-out: PI3K γ In Vitro IC50) it was less than 1000 nM; at p110α/p85α (read-out: PI3K α In Vitro IC50), less than 1000 nM; at p110δ/p85α (read-out: PI3K δ In Vitro IC50), less than 10000 nM.
As to `Cc1cc(-c2ccc3oc(N)nc3c2)cc2c(C(=O)N3CCOCC3)cnn12` [compound 357], the IC50 at p110β/p85α (setting [1]) is less than 10000 nM; at p110γ (setting [2]), less than 1000 nM; on p110α/p85α (setting [3]) it was less than 1000 nM; on p110δ/p85α (setting [4]) it was less than 10000 nM.
`Nc1nc2cc(-c3ccc4ncc(N5CC(N6CCNCC6)C5)nc4c3)ccc2o1` [compound 326]: the IC50 was less than 1000 nM on p110β/p85α (setting [1]), less than 1000 nM at p110γ (setting [2]), less than 100 nM at p110α/p85α (setting [3]) and less than 1000 nM at p110δ/p85α (setting [4]).
Consider `CN(C)CC(=O)N1CCN(c2cnc3ccc(-c4ccc5oc(N)nc5c4)cc3n2)CC1` [compound 217], for which the IC50 was less than 1000 nM on p110β/p85α (setting [1]), less than 1000 nM at p110γ (setting [2]), less than 100 nM on p110α/p85α (setting [3]) and less than 1000 nM on p110δ/p85α (setting [4]).
As for `CN(C)C1CCN(c2cnc3ccc(-c4ccc5oc(N)nc5c4)cc3n2)CC1` [compound 172], the IC50 at p110β/p85α (read-out: PI3K β IC50) was less than 100 nM; on p110γ (read-out: PI3K γ IC50), less than 1000 nM; on p110α/p85α (read-out: PI3K α IC50), less than 100 nM; on p110δ/p85α (read-out: PI3K δ IC50) it was less than 100 nM.
For `CS(=O)(=O)N1CCC(Nc2ncnc3ccc(-c4ccc5oc(N)nc5c4)cc23)CC1` [compound 87], the IC50 on p110β/p85α (read-out: PI3K β IC50) was less than 1000 nM; at p110γ (read-out: PI3K γ IC50), less than 100 nM; on p110α/p85α (read-out: PI3K α IC50), less than 100 nM; on p110δ/p85α (read-out: PI3K δ IC50) it was less than 100 nM.
Take `Nc1nc2cc(-c3ccc4ncc(N5CC(N6CCOCC6)C5)nc4c3)cc(Cl)c2o1` [compound 358]: the IC50 at p110β/p85α (setting [1]) was less than 1000 nM; on p110γ (setting [2]), less than 1000 nM; on p110α/p85α (setting [3]), less than 100 nM; on p110δ/p85α (setting [4]) it was less than 1000 nM.
With `Nc1nc2cc(-c3cn4c(-c5ccncc5)cnc4cn3)ccc2o1` [compound 68], the IC50 was less than 10000 nM on p110β/p85α (read-out: PI3K β IC50), less than 1000 nM at p110γ (read-out: PI3K γ IC50), less than 100 nM at p110α/p85α (read-out: PI3K α IC50) and less than 10000 nM on p110δ/p85α (read-out: PI3K δ IC50).
In the case of `Nc1nc2cc(-c3ccc4ncc(C(=O)NC5CCOCC5)n4c3)ccc2o1` [compound 83], the IC50 at p110β/p85α (read-out: PI3K β IC50) was less than 10000 nM; at p110γ (read-out: PI3K γ IC50), less than 100 nM; at p110α/p85α (read-out: PI3K α IC50), less than 100 nM; on p110δ/p85α (read-out: PI3K δ IC50), less than 100 nM.
On to `CC(=O)NC1CCN(C(=O)c2cnc3ccc(-c4ccc5oc(N)nc5c4)cn23)CC1` [compound 147], for which the IC50 was less than 10000 nM at p110β/p85α (read-out: PI3K β IC50), less than 10000 nM on p110γ (read-out: PI3K γ IC50), less than 1000 nM on p110α/p85α (read-out: PI3K α IC50) and less than 10000 nM on p110δ/p85α (read-out: PI3K δ IC50).
As for `CN1CCN(CCNC(=O)c2cnc3ccc(-c4ccc5oc(N)nc5c4)cn23)CC1` [compound 306], the IC50 is less than 1000 nM on p110β/p85α (setting [1]), less than 1000 nM on p110γ (setting [2]), less than 100 nM on p110α/p85α (setting [3]) and less than 1000 nM on p110δ/p85α (setting [4]).
For the compound `Nc1nc2cc(-c3ccc4ncc(-c5cn[nH]c5)n4n3)ccc2o1` [compound 59], the IC50 is less than 100 nM at p110β/p85α (read-out: PI3K β IC50), less than 100 nM at p110γ (read-out: PI3K γ IC50), less than 100 nM at p110α/p85α (read-out: PI3K α IC50) and less than 1000 nM on p110δ/p85α (read-out: PI3K δ IC50).
Consider `CC(=O)Nc1nc2ccc(-c3cc(F)c4oc(N)nc4c3)cc2s1` [compound 434], for which the half-inhibitory concentration (IC50) on p110β/p85α (read-out: PI3K β In Vitro IC50), on p110γ (read-out: PI3K γ In Vitro IC50), on p110α/p85α (read-out: PI3K α In Vitro IC50) and on p110δ/p85α (read-out: PI3K δ In Vitro IC50) was less than 100 nM throughout.
With `COc1nc(-c2ccc3oc(N)nc3c2)cnc1N` [compound 238], the IC50 is less than 1000 nM on p110β/p85α (setting [1]), less than 1000 nM on p110γ (setting [2]), less than 1000 nM on p110α/p85α (setting [3]) and less than 10000 nM at p110δ/p85α (setting [4]).
